These results are taken from the RepoRT retention time repository.

The series in a line: HILIC, HILICON iHILIC-(P) Classic, HILIC, PEEK, 100 × 2.1 mm, 5 µm, 40 °C, 0.15 mL/min, estimated dead time 1.5 min; A: water + 20 mM ammonium carbonate + 5 µM medronic acid; B: 10% water + 90% acetonitrile + 2 mM ammonium carbonate + 0.5 µM medronic acid; gradient (min/%B) 0/95 18/55 19/20 22/20 22.5/95 24/95 26/95. The following applies: stereoisomer not certain.

For `O=C(O)CCC(=O)C(=O)O` [2-Oxoglutaric acid], the LC retention time was 13 min. In the case of `Nc1ncnc2c1ncn2C1OC(COP(=O)(O)OP(=O)(O)O)C(O)C1O` (centres undefined) [ADP], the LC retention time is 12 min. Turning to `Nc1ncnc2c1ncn2C1OC(COP(=O)(O)O)C(O)C1O` (centres undefined) [AMP], the LC retention time was 10.4 min. For `Nc1ncnc2c1ncn2C1OC(COP(=O)(O)OP(=O)(O)OP(=O)(O)O)C(O)C1O` (centres undefined) [ATP], the LC retention time was 14.6 min. As to `CC(=O)SCCNC(=O)CCNC(=O)C(O)C(C)(C)COP(=O)(O)OP(=O)(O)OCC1OC(n2cnc3c(N)ncnc32)C(O)C1OP(=O)(O)O` (centres undefined) [Acetyl-CoA], the LC retention time is 10 min. Regarding `Nc1ncnc2c1ncn2C1OC(CO)C(O)C1O` (centres undefined) [Adenosine], the LC retention time was 3.83 min. Turning to `NC(N)=NCCCC(N)C(=O)O` (centres undefined) [Arginine], the LC retention time was 18.9 min.

On to `NC(=O)CC(N)C(=O)O` (centres undefined) [Asparagine], for which the LC retention time is 10.4 min.

For `NC(CC(=O)O)C(=O)O` (centres undefined) [Aspartic Acid], the LC retention time is 10.3 min. As to `O=C(O)CC(O)(CC(=O)O)C(=O)O` [Citric acid], the LC retention time was 15.3 min. The value for `CC(C)(COP(=O)(O)OP(=O)(O)OCC1OC(n2cnc3c(N)ncnc32)C(O)C1OP(=O)(O)O)C(O)C(=O)NCCC(=O)NCCS` (centres undefined) [CoenzymeA] was 11.6 min; that for `O=C(CO)C(O)C(O)C(O)COP(=O)(O)O` (centres undefined) [Fructose 6-phosphate] was 12.3 min. To `O=P(O)(O)OCC1OC(O)(COP(=O)(O)O)C(O)C1O` (centres undefined) [Fructose-1,6-bisphosphate] belongs 16.3 min; to `O=C(O)C=CC(=O)O` [Fumaric Acid], 12.7 min; to `NC(CCC(=O)NC(CS)C(=O)NCC(=O)O)C(=O)O` (centres undefined) [GSH], 9.58 min.

On to `NC(CCC(=O)NC(CSSCC(NC(=O)CCC(N)C(=O)O)C(=O)NCC(=O)O)C(=O)NCC(=O)O)C(=O)O` (centres undefined) [GSSG], for which the LC retention time is 15.1 min. On to `O=P(O)(O)OC1OC(CO)C(O)C(O)C1O` (centres undefined) [Glucose-1-phosphate], for which the LC retention time was 12.3 min. On to `O=P(O)(O)OCC1OC(O)C(O)C(O)C1O` (centres undefined) [Glucose-6-phosphate], for which the LC retention time is 13.7 min.

As for `NC(CCC(=O)O)C(=O)O` (centres undefined) [Glutamic acid], the LC retention time was 9.88 min.

As for `NC(=O)CCC(N)C(=O)O` (centres undefined) [Glutamine], the LC retention time is 10.2 min. In the case of `O=P(O)(O)OCC(O)CO` (centres undefined) [Glycerol-3-phosphate], the LC retention time is 11.1 min. `O=C(O)CC(C(=O)O)C(O)C(=O)O` (centres undefined) [Isocitric acid]: the LC retention time is 15.9 min. On to `CC(O)C(=O)O` (centres undefined) [Lactic Acid], for which the LC retention time is 2.68 min. For `NCCCCC(N)C(=O)O` (centres undefined) [Lysine], the LC retention time was 18.7 min. With `O=C(O)CC(O)C(=O)O` (centres undefined) [Malic Acid], the LC retention time was 11.9 min.

On to `NC(=O)C1=CN(C2OC(COP(=O)(O)OP(=O)(O)OCC3OC(n4cnc5c(N)ncnc54)C(O)C3O)C(O)C2O)C=CC1` (centres undefined) [NADH], for which the LC retention time was 9.88 min. For `NC(=O)C1=CN(C2OC(COP(=O)(O)OP(=O)(O)OCC3OC(n4cnc5c(N)ncnc54)C(OP(=O)(O)O)C3O)C(O)C2O)C=CC1` (centres undefined) [NADPH], the LC retention time is 16.4 min.

In the case of `NC(=O)c1ccc[n+](C2OC(COP(=O)(O)OP(=O)(O)OCC3OC(n4cnc5c(N)ncnc54)C(OP(=O)(O)O)C3O)C(O)C2O)c1` (centres undefined) [NADP], the LC retention time is 14.5 min. On to `NC(=O)c1ccc[n+](C2OC(COP(=O)(O)OP(=O)(O)OCC3OC(n4cnc5c(N)ncnc54)C(O)C3O)C(O)C2O)c1` (centres undefined) [NAD], for which the LC retention time was 10.3 min. On to `C=C(OP(=O)(O)O)C(=O)O` [PEP], for which the LC retention time is 14.6 min. To `O=P(O)(O)OCC1OC(O)C(O)C1O` (centres undefined) [Pentose-phosphate] belongs 11.5 min; to `O=C(O)CCC(=O)O` [Succinic Acid], 11.2 min; to `O=C(CO)COP(=O)(O)O` [Triose phosphate], 11.4 min.

`CC(=O)NC1C(OP(=O)(O)OP(=O)(O)OCC2OC(n3ccc(=O)[nH]c3=O)C(O)C2O)OC(CO)C(O)C1O` (centres undefined) [UDP-GlcNAc]: the LC retention time was 12 min.
